Source: ChEMBL document CHEMBL5030528, “Xanthine Derivatives Reveal an Allosteric Binding Site in Methylenetetrahydrofolate Dehydrogenase 2 (MTHFD2)” (J Med Chem, 2021)
Calls of active or inactive are those of the source. The calls are words filed in the database; no cut-off is given here.

What was measured:
[1] = biological target: T1, Bifunctional methylenetetrahydrofolate dehydrogenase/cyclohydrolase, mitochondrial (Homo sapiens) (UniProt P13995); assay: Uncompetitive inhibition of C-terminal His-tagged human MTHFD2 (36 to 350 residues) expressed in insect cells assessed as decrease in Km by using varying levels of tetrahydrofolate as substrate by double-reciprocal plot analysis; conditions: time 10.0 min
T1 sequence (whole entry): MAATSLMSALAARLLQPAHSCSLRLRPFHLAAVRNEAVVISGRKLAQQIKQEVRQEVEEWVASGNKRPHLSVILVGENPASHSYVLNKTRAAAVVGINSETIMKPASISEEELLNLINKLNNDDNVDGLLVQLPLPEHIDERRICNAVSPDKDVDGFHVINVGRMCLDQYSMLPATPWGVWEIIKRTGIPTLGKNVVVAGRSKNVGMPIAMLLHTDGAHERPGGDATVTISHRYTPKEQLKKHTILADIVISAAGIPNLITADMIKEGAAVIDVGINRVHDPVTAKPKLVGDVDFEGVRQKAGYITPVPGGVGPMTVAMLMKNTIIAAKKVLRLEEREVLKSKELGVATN

[2] = biological target: T1, Bifunctional methylenetetrahydrofolate dehydrogenase/cyclohydrolase, mitochondrial (Homo sapiens); assay: Uncompetitive inhibition of C-terminal His-tagged human MTHFD2 (36 to 350 residues) expressed in insect cells assessed as decrease in Vmax using varying levels of tetrahydrofolate as substrate by double-reciprocal plot analysis; conditions: time 10.0 min

Cc1cc(Nc2nc3c(c(=O)n(Cc4cc5c(Cl)cccc5[nH]4)c(=O)n3C)n2C)nc(CCC(=O)O)n1
inhibition [1]: Active | inhibition [2]: Active
